Data on seven compounds can be found in patent US11541051B2, “Compositions and methods for treating CDK4/6-mediated cancer” (Icahn School of Medicine at Mount Sinai, priority 2016, dated 2023).

Type in all cases: cell-based
For assay [1], the system named is T47D breast cancer cells. Briefly: Crystal violet staining (clonogenic assay) of T47D breast cancer cells (Example 13, FIGS. 22, 23). The settings on record: 11 days. As to the method:
Cells were cultured for 7-11 days in the presence of different compounds. Media with compound was replenished every two days. At the end of the experiment, media was aspirated and viable cells were stained with 0.5% crystal violet dye.

Assay [2] relates to CDK4/6. Briefly: Characterization of CDK4/6 degraders/disruptors in various breast cancer and melanoma cells (summary, Examples 12 and 13). As to the method: Specific exemplary abemaciclib-, ribociclib-, and palbociclib-based CDK4/6 degraders/disruptors were characterized in various different breast cancer and melanoma cells (Examples 12 and 13, FIGS. 10-23). […] This efficacy in suppressing CDK4/6 expression and CDK4/6 activity correlated with efficacy in inhibiting cancer cell proliferation.
(§1) Protein concentrations were determined by BCA from cell lysates and equal amounts of protein are loaded to a Bis-Tris 4-12% gel. Gels were run at 80 V for 4 h using 1× running buffer (25 mM Tris, pH 8.3, […] glycine, 0.1% SDS). Proteins were transferred to a nitrocellulose membrane for 2 h at 100 V using transfer buffer (25 mM Tris, pH 8.3, […] glycine, 20% methanol). Ponceau S staining (0.1% Ponceau S, 1% acetic acid) was used to confirm transfer of proteins to the membrane followed by blocking of the membrane for 30 min at room temperature using blocking buffer (5% dry nonfat milk, 0.1% Tween, 0.02% sodium azide in TBS). The blocked membrane is incubated with primary antibodies (1:1000 dilution) in blocking buffer at 4° C. overnight. When primary phosphor-antibodies were used, then the membrane is incubated with 5% BSA instead of milk. The membrane was washed three times, 10 min each, with wash buffer (0.1% Tween in TBS) followed by incubation with secondary HRP conjugated antibody (1:5000 dilution) in 2.5% dry nonfat milk, 0.1% Tween in TBS for 1 h at room temperature. The membrane was washed three times, 10 min each, with wash buffer (0.1% Tween in TBS). Membranes are incubated with ECL for 1 min and proteins are detected after exposure to a blue autoradiographic film.

Assay [3] relates to CDK4/6. The assay is described as follows: Western blot of CDK4, CDK6 and phospho-Rb in A375 melanoma cells treated with degraders (Example 12, FIGS. 12, 13, 16, 18). The settings on record: 1 or 3 μM, 24 h. On the procedure: (§2) Breast cancer cell lines (MCF7, T47D, and ZR-75-1) and melanoma cell lines (A375, SK-MEL-2, SK-MEL-30, and WM1382) were cultured in the presence of DMEM or RPMI supplemented with 10% FBS in the presence of penicillin and streptomycin.
as §1
A375 melanoma cells (FIG. 13) were treated with 1 or 3 μM Ribociclib (RB), YX030-126, YX030-108, YX030-107, YX030-086, YX030-085 or XY028-133 for 24 h, then lysed and immunoblotted with antibodies to CDK4, CDK6, cyclin A, PLK1, phospho-Rb (pRb), and actin.
A375 melanoma cells (FIG. 16, panel A) were treated with 0.3 or 1 μM XY028-140, YX039-65, YX039-48, YX039-123, YX039-56, YX039-124 or YX039-147 for 24 h. A375 melanoma cells were treated with 1 or 3 μM XY028-140, YX039-56, YX039-65 or XY028-133 (FIG. 16, panel B). Cells were lysed and immunoblotted with antibodies to phospho-Rb (pRb), total Rb, PLK1, cyclin A, CDK4, CDK6, and actin.
A375 melanoma cells (FIG. 18) were treated with 1 or 3 μM XY028-133, YX044-18, YX044-22, XY028-140, YX044-19 or YX044-38 for 24 h, then lysed and immunoblotted with antibodies to phospho-Rb (pRb), total Rb, PLK1, cyclin A, CDK4, CDK6, and actin.
In general terms: In western blotting, separated proteins are transferred to a membrane and probed.

Assay [4] has as its system CDK4/6. The assay is described as follows: Western blot of CDK4/6 and phospho-Rb in T47D breast cancer cells treated with degraders (Example 12, FIGS. 10 B, 17, 19). Particulars: 0.3 or 1 μM, 24 h. On the procedure:
as §2, §1
MCF7 breast cancer cells were treated with 1 or 5 μM XY019-095, XY019-098, XY019-0100, XY019-105A, XY019-105B, XY019-106, or XY019-108 for 24 h, then lysed and immunoblotted with antibodies to CDK4, CDK6, and actin (FIG. 10, panel A). […] T47D breast cancer cells were treated with 0.1, 0.3, 1, 3, 10, or 30 μM XY019-106 for 24 h, then lysed and immunoblotted with antibodies to phospho-Rb (pRB), CDK4, and actin (FIG. 10, panel B).
T47D breast cancer cells (FIG. 17) were treated with 0.3 or 1 μM XY028-140, YX039-48, YX039-123, YX039-56, YX039-124, YX039-65, YX039-147 or YX039-74 for 24 h, then lysed and immunoblotted with antibodies to phospho-Rb (pRb), total Rb, PLK1, cyclin A, CDK4, CDK6, and actin.
T47D breast cancer cells (FIG. 19) were treated with 0.3 or 1 μM XY028-133, YX044-18, YX044-22, XY028-140, YX044-19 or YX044-38 for 24 h, then lysed and immunoblotted with antibodies to phospho-Rb (pRb), total Rb, PLK1, cyclin A, CDK4, CDK6, and actin.

SMILES strings stand for the structures. “Also recorded” adds a separate entry of the source.

Consider `CC(=O)c1c(C)c2cnc(Nc3ccc(N4CCN(C(=O)CNc5cccc6c5C(=O)N(C5CCC(=O)NC5=O)C6=O)CC4)cn3)nc2n(C2CCCC2)c1=O` (stereo not drawn) [XY028-140, 4-((2-(4-(6-((6-acetyl-8-cyclopentyl-5-methyl-7-oxo-7,8-dihydropyrido[2,3-d]pyrimidin-2-yl)amino)pyridin-3-yl)piperazin-1-yl)-2-oxoethyl)amino)-2-(2,6-dioxopiperidin-3-yl)isoindoline-1,3-dione], for which the “inhibition of cancer cell proliferation compared with palbociclib (crystal violet staining)” value was “inhibited cancer cell proliferation more effective that palbociclib at the same concentration” in assay [1] (0.003, 0.01 or 0.03 μM) and “inhibited cancer cell proliferation more effective that palbociclib at the same concentration” in assay [1] (0.03, 0.1, 0.3, 1 or 3 μM). In addition, the “suppression of both CDK4/6 expression and CDK4/6 activity (summary)” value (“suppression” below) in assay [2] was “especially effective in suppressing both CDK4/6 expression and CDK4/6 activity”. Besides, the “efficacy in inhibiting both CDK4/6 expression and CDK4/6 activity (decreased Rb phosphorylation)” value in assay [3] was “efficacy of CDK4/6 degraders, particularly XY028-133, XY028-140, XY019-106 and XY028-003”; in assay [4] it was “efficacy of CDK4/6 degraders, particularly XY028-140 and YX039-123; also recorded: efficacy of CDK4/6 degraders, particularly XY028-140 and YX044-22 and YX044-19”.
Regarding `CC(=O)c1c(C)c2cnc(Nc3ccc(N4CCN(C(=O)CCc5cccc6c5C(=O)N(C5CCC(=O)NC5=O)C6)CC4)cn3)nc2n(C2CCCC2)c1=O` (stereo not drawn) [YX039-56, 3-(7-(3-(4-(6-((6-acetyl-8-cyclopentyl-5-methyl-7-oxo-7,8-dihydropyrido[2,3-d]pyrimidin-2-yl)amino)pyridin-3-yl)piperazin-1-yl)-3-oxopropyl)-1-oxoisoindolin-2-yl)piperidine-2,6-dione], the “inhibition of cancer cell proliferation compared with palbociclib (crystal violet staining)” value in assay [1] (0.003, 0.01 or 0.03 μM) is “inhibited cancer cell proliferation more effective that palbociclib at the same concentration”; in assay [1] (0.03, 0.1, 0.3, 1 or 3 μM), “inhibited cancer cell proliferation more effective that palbociclib at the same concentration”. Besides, the “suppression” value in assay [2] is “especially effective in suppressing both CDK4/6 expression and CDK4/6 activity”.
Consider `CC(=O)c1c(C)c2cnc(Nc3ccc(N4CCN(C(=O)CNc5cccc6c5CN(C5CCC(=O)NC5=O)C6=O)CC4)cn3)nc2n(C2CCCC2)c1=O` (stereo not drawn) [YX039-65, 3-(4-((2-(4-(6-((6-acetyl-8-cyclopentyl-5-methyl-7-oxo-7,8-dihydropyrido[2,3-d]pyrimidin-2-yl)amino)pyridin-3-yl)piperazin-1-yl)-2-oxoethyl)amino)-1-oxoisoindolin-2-yl)piperidine-2,6-dione], for which the “inhibition of cancer cell proliferation compared with palbociclib (crystal violet staining)” value was “inhibited cancer cell proliferation more effective that palbociclib at the same concentration” in assay [1] (0.003, 0.01 or 0.03 μM) and “inhibited cancer cell proliferation more effective that palbociclib at the same concentration” in assay [1] (0.03, 0.1, 0.3, 1 or 3 μM). For the same compound, the “suppression” value in assay [2] was “especially effective in suppressing both CDK4/6 expression and CDK4/6 activity”.
Turning to `CC(=O)c1c(C)c2cnc(Nc3ccc(N4CCN(C(=O)COc5cccc6c5CN(C5CCC(=O)NC5=O)C6=O)CC4)cn3)nc2n(C2CCCC2)c1=O` (stereo not drawn) [YX039-123, 3-(4-(2-(4-(6-((6-acetyl-8-cyclopentyl-5-methyl-7-oxo-7,8-dihydropyrido[2,3-d]pyrimidin-2-yl)amino)pyridin-3-yl)piperazin-1-yl)-2-oxoethoxy)-1-oxoisoindolin-2-yl)piperidine-2,6-dione], the “inhibition of cancer cell proliferation compared with palbociclib (crystal violet staining)” value is listed as “inhibited cancer cell proliferation more effective that palbociclib at the same concentration” in assay [1] (0.003, 0.01 or 0.03 μM) and “inhibited cancer cell proliferation more effective that palbociclib at the same concentration” in assay [1] (0.03, 0.1, 0.3, 1 or 3 μM). In assay [2], the “suppression” value is “especially effective in suppressing both CDK4/6 expression and CDK4/6 activity”. Further, in assay [4], the “efficacy in inhibiting both CDK4/6 expression and CDK4/6 activity (decreased Rb phosphorylation)” value was “efficacy of CDK4/6 degraders, particularly XY028-140 and YX039-123”.
Consider `CC(=O)c1c(C)c2cnc(Nc3ccc(N4CCCN(C(=O)CCCCCC(=O)N[C@H](C(=O)N5C[C@H](O)C[C@H]5C(=O)NCc5ccc(-c6scnc6C)cc5)C(C)(C)C)CC4)cn3)nc2n(C2CCCC2)c1=O` [YX044-18, (2S,4R)-1-((S)-2-(7-(4-(6-((6-acetyl-8-cyclopentyl-5-methyl-7-oxo-7,8-dihydropyrido[2,3-d]pyrimidin-2-yl)amino)pyridin-3-yl)-1,4-diazepan-1-yl)-7-oxoheptanamido)-3,3-dimethylbutanoyl)-4-hydroxy-N-(4-(4-methylthiazol-5-yl)benzyl)pyrrolidine-2-carboxamide], for which, in assay [3], the “efficacy in inhibiting both CDK4/6 expression and CDK4/6 activity (decreased Rb phosphorylation)” value was “efficacy of CDK4/6 degraders, particularly XY028-133 and YX044-18”.
Regarding `CC(=O)c1c(C)c2cnc(Nc3ccc(N4CCCN(C(=O)CNc5cccc6c5C(=O)N(C5CCC(=O)NC5=O)C6=O)CC4)cn3)nc2n(C2CCCC2)c1=O` (stereo not drawn) [YX044-19, 4-((2-(4-(6-((6-acetyl-8-cyclopentyl-5-methyl-7-oxo-7,8-dihydropyrido[2,3-d]pyrimidin-2-yl)amino)pyridin-3-yl)-1,4-diazepan-1-yl)-2-oxoethyl)amino)-2-(2,6-dioxopiperidin-3-yl)isoindoline-1,3-dione], the “efficacy in inhibiting both CDK4/6 expression and CDK4/6 activity (decreased Rb phosphorylation)” value in assay [4] is “efficacy of CDK4/6 degraders, particularly XY028-140 and YX044-22 and YX044-19”.
Same read-out and setting: to `CC(=O)c1c(C)c2cnc(Nc3ccc(N4CCN(C(=O)CCCCCC(=O)N[C@H](C(=O)N5C[C@H](O)C[C@H]5C(=O)N[C@@H](C)c5ccc(-c6scnc6C)cc5)C(C)(C)C)CC4)cn3)nc2n(C2CCCC2)c1=O` [YX044-22, (2S,4R)-1-((S)-2-(7-(4-(6-((6-acetyl-8-cyclopentyl-5-methyl-7-oxo-7,8-dihydropyrido[2,3-d]pyrimidin-2-yl)amino)pyridin-3-yl)piperazin-1-yl)-7-oxoheptanamido)-3,3-dimethylbutanoyl)-4-hydroxy-N-((S)-1-(4-(4-methylthiazol-5-yl)phenyl)ethyl)pyrrolidine-2-carboxamide] belongs “efficacy of CDK4/6 degraders, particularly XY028-140 and YX044-22 and YX044-19”.
